Measurements: ChEMBL document CHEMBL5465560, “Selectivity Literature for EUbOPEN Chemogenomic Library” (2024)

Legend:
[1] = molecular target: Serine/threonine-protein kinase MARK2 (Homo sapiens) (UniProt Q7KZI7); assay: Selectivity interaction (Kinase panel (KiNativ target engagement assay in Jurkat cells)) EUB0001635a MARK2; format: cell-based; conditions: Selectivity number of off-targets 0.0, Selectivity number of targets 233.0, Source Knowledge https://www.sciencedirect.com/science/article/pii/S2451945619300674?via%3Dihub, at 1 µM
Sequence of Serine/threonine-protein kinase MARK2 (Homo sapiens) (Q7KZI7 whole entry): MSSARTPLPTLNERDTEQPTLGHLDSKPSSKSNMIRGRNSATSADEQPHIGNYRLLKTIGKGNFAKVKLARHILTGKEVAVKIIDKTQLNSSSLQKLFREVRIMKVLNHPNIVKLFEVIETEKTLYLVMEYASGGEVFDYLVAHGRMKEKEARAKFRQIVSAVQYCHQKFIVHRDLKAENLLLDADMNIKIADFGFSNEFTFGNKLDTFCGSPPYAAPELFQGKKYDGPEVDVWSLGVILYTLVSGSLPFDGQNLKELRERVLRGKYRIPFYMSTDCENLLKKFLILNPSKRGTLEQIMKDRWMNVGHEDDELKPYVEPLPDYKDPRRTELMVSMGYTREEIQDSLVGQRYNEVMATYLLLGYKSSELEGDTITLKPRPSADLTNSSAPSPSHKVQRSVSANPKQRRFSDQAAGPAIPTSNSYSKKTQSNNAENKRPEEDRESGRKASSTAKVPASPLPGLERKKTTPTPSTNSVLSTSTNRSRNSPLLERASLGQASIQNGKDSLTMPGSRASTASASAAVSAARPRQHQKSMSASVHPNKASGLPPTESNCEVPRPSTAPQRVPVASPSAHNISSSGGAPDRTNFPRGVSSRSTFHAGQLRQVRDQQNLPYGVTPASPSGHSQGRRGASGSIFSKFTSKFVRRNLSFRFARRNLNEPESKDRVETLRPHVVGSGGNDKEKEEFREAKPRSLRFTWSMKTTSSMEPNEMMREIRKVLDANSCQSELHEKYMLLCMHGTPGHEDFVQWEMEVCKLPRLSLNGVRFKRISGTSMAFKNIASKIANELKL

[2] = molecular target: T1, Non-receptor tyrosine-protein kinase TNK1 (Homo sapiens) (UniProt Q13470); assay: Selectivity interaction (KinomeScan (DiscoverX)) EUB0000229b TNK1; conditions: at 10 µM
T1 sequence (whole entry): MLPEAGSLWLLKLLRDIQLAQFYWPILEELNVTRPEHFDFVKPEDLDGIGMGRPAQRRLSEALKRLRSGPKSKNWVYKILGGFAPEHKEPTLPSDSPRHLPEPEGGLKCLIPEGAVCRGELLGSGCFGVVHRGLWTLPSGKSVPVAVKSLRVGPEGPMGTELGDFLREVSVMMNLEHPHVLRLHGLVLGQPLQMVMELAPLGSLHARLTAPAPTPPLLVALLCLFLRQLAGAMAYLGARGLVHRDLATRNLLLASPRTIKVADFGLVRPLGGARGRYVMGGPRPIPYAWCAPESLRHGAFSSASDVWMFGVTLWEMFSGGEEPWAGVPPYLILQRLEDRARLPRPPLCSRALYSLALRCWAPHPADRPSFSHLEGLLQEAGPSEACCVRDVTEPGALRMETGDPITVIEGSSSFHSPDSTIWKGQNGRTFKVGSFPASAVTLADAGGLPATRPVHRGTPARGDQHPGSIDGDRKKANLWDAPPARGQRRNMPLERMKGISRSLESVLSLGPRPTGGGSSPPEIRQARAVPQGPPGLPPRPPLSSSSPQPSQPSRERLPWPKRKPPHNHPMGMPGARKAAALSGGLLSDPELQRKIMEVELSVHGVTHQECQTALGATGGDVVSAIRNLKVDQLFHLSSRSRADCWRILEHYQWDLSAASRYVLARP

[3] = system: Receptor-type tyrosine-protein kinase FLT3 (Homo sapiens), P36888 [UNDEFINED MUTATION]; assay: (§1) Selectivity interaction (KinomeScan (DiscoverX)) EUB0000695a FLT3; conditions: at 100 nM
[4] = system: T2, Receptor-type tyrosine-protein kinase FLT3 (Homo sapiens), P36888 [N841I]; assay: as §1; conditions: at 100 nM
T2 sequence (whole entry): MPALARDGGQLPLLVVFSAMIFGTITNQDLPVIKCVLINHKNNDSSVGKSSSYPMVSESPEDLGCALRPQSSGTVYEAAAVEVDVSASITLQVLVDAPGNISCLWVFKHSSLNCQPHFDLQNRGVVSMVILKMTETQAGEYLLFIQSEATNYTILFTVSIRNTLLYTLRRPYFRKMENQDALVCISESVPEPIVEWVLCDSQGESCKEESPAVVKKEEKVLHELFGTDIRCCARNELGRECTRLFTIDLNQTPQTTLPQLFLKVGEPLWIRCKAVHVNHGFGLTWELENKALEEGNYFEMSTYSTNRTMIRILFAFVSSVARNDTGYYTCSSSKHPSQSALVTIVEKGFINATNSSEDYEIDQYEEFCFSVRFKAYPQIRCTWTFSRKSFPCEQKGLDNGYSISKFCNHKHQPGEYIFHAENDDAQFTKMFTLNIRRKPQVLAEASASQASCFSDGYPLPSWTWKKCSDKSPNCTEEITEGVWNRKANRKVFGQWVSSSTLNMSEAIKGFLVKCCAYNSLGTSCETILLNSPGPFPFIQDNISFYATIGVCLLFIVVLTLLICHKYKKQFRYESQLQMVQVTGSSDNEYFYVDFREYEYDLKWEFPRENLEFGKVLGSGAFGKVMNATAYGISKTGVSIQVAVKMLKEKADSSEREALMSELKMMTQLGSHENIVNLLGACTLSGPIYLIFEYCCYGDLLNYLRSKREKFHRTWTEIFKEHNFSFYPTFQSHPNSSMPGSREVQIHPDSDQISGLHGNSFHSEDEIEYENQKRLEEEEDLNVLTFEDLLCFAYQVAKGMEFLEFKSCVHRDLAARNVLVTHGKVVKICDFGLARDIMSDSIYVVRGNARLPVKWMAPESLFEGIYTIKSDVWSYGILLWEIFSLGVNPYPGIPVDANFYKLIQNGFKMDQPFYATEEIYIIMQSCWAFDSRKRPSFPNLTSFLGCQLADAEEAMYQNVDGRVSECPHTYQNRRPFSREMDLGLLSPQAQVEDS

[5] = molecular target: Receptor tyrosine-protein kinase erbB-4 (Homo sapiens, UniProt Q15303); assay: Selectivity interaction (KinomeScan (DiscoverX)) EUB0001049a ERBB4; conditions: at 1 µM
Sequence of Receptor tyrosine-protein kinase erbB-4 (Q15303 whole entry): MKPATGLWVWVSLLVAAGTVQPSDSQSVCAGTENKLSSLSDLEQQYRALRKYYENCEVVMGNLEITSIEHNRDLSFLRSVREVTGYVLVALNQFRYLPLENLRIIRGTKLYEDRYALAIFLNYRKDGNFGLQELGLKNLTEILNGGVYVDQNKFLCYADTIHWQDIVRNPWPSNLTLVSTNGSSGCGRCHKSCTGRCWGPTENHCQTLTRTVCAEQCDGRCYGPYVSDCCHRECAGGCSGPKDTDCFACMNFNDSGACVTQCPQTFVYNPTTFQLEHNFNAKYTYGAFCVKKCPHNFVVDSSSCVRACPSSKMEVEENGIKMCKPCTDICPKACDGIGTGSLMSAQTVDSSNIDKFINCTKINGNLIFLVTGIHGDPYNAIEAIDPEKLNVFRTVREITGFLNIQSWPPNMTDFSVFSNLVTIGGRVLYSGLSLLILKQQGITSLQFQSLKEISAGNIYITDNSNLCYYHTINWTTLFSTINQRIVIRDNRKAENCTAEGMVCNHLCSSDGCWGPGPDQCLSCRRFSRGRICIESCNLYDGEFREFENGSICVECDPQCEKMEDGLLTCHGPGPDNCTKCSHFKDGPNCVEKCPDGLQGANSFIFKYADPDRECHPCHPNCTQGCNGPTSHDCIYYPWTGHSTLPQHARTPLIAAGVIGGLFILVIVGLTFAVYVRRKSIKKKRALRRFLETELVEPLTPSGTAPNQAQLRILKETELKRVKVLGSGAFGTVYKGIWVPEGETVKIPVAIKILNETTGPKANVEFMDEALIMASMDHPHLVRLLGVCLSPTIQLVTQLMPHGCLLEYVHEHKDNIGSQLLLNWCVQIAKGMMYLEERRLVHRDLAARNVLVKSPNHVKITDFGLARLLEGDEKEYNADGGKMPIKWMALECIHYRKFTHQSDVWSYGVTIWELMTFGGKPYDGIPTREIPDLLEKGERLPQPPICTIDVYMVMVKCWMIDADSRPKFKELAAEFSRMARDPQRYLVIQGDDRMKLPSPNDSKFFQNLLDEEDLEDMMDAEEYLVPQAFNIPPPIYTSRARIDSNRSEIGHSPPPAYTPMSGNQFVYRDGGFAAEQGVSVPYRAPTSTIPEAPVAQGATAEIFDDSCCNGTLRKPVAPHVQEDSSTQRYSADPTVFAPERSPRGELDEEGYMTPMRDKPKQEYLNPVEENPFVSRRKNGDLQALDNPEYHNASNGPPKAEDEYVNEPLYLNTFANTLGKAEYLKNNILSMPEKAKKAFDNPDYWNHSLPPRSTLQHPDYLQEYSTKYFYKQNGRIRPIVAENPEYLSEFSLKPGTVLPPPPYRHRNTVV

[6] = molecular target: 5'-AMP-activated protein kinase catalytic subunit alpha-2 (Homo sapiens) (UniProt P54646); assay: Selectivity interaction (ActivX KiNativ screen (kinase selectivity in THP-1 cell lysates)) EUB0000639a PRKAA2; format: subcellular; conditions: lysate, at 1 µM
Sequence of 5'-AMP-activated protein kinase catalytic subunit alpha-2 (Homo sapiens) (P54646 whole entry, looked up): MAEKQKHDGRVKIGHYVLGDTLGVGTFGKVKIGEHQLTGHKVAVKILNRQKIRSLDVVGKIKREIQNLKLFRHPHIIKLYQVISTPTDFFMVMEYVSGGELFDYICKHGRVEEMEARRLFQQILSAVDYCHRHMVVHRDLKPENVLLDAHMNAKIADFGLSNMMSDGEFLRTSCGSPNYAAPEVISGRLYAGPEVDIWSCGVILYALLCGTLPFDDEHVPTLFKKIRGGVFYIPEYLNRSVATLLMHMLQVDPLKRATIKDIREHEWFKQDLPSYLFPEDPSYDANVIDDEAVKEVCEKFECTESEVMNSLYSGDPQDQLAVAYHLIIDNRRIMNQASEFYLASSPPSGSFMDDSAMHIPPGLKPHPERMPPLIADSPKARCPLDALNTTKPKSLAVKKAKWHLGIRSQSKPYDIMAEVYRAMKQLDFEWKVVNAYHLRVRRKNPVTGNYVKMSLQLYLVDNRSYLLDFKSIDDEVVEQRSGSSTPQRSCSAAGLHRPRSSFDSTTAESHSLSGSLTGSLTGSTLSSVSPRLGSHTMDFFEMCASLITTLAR

[7] = molecular target: T3, Serine/threonine-protein kinase RIO3 (Homo sapiens) (UniProt O14730); conditions: at 10 µM
T3 sequence (whole entry): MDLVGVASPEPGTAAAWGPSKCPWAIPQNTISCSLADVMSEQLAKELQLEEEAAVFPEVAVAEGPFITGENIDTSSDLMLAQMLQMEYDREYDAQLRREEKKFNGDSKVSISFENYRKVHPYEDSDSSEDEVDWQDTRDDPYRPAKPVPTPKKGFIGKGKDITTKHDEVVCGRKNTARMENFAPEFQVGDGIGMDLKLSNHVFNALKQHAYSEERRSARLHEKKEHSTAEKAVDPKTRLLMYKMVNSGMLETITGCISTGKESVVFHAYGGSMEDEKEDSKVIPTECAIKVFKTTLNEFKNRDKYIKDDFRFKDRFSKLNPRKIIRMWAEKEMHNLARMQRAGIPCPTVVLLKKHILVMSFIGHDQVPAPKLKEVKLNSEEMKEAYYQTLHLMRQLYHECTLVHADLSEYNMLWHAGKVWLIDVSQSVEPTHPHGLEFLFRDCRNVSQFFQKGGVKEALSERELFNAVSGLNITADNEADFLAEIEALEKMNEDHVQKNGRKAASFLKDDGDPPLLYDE

C=CC(=O)Nc1ccc(C(=O)Nc2[nH]nc3c2CN(C(=O)N[C@H](CN(C)C)c2ccccc2)C3(C)C)cc1
% of engagement [1]: -1.9%

COc1cc(N(C)c2ccnc3ccc(C(F)(F)F)cc23)cc(OC)c1OC
% binding [2]: 63%

Cc1cc(F)c(C(=O)Nc2cccc(-c3nncn3C(C)C)n2)cc1-n1cnc(C2CC2)c1
% of control [3]: 100%
% of control [4]: 93%

COc1cc(Nc2nc(C)cc(-c3cnn4nc(OC)ccc34)n2)cc(C(F)(F)F)c1
% of control [5]: 90%

CC[C@@H]1[C@H](F)C(=O)N[C@@H]1COc1nccc2cc(C(N)=O)c(OC)cc12 [ZIMLOVISERTIB]
% of inhibition [6]: -4.6%

CCN(CC)CCCCNc1ncc2cc(-c3cc(OC)cc(OC)c3)c(NC(=O)NC(C)(C)C)nc2n1
% of control [7]: 100%
